# Results from ChEMBL document CHEMBL3885861, “Open TG-GATES”.
# Organism: Rattus norvegicus
# Test: Open TG-GATES - Regimen: Daily Repeat
# Type: toxicity, organism-based, Sprague-Dawley
# Design: regimen Daily Repeat, gender Male, age 6 weeks
# Settings: in vivo, po, 30 mg/kg, route gavage, dose level Low; for APTT / Bas / Eos / Fbg / Hb / Ht / Lym / MCH / MCHC / MCV / Mono / Neu / PT / Plat / RBC / Ret / WBC: tissue Blood; for KIDNEY_L / KIDNEY_R / KIDNEY_TOTAL: tissue Kidney; for LIVER: tissue Liver; for A/G / ALP / ALT / AST / BUN / CRE / Ca / Cl / DBIL / GLC / IP / K / LDH / Na / PL / RALB / TBIL / TC / TG / TP / gamma-GTP: tissue Plasma
structure (smiles),measurement,setting,value
O=C(O)COc1nn(Cc2ccccc2)c2ccccc12 [BENDAZAC],TERMINAL_BW,"72 h, time 3 day",236.5 g
same,APTT,"72 h, time 3 day",17 s
same,Bas,"72 h, time 3 day",0%
same,Eos,"72 h, time 3 day",1.4%
same,Fbg,"72 h, time 3 day",215.2 mg/dL
same,Hb,"72 h, time 3 day",13.4 g/dL
same,Ht,"72 h, time 3 day",40.6%
same,Lym,"72 h, time 3 day",79.2%
same,MCH,"72 h, time 3 day",21.1 pg
same,MCHC,"72 h, time 3 day",33%
same,MCV,"72 h, time 3 day",63.9 fL
same,Mono,"72 h, time 3 day",6.6%
same,Neu,"72 h, time 3 day",12.8%
same,PT,"72 h, time 3 day",11.9 s
same,Plat,"72 h, time 3 day",128 x10_4/uL
same,RBC,"72 h, time 3 day",636 x10_4/ul
same,Ret,"72 h, time 3 day",6.9%
same,WBC,"72 h, time 3 day",98.4 x10_2/uL
same,KIDNEY_L,"72 h, time 3 day",1 g
same,KIDNEY_R,"72 h, time 3 day",1 g
same,KIDNEY_TOTAL,"72 h, time 3 day",2.1 g
same,LIVER,"72 h, time 3 day",11.9 g
same,A/G,"72 h, time 3 day",2.2
same,ALP,"72 h, time 3 day",891 IU/L
same,ALT,"72 h, time 3 day",36.6 IU/L
same,AST,"72 h, time 3 day",66.6 IU/L
same,BUN,"72 h, time 3 day",17.2 mg/dL
same,CRE,"72 h, time 3 day",0.6 mg/dL
same,Ca,"72 h, time 3 day",11 mg/dL
same,Cl,"72 h, time 3 day",103 meq/L
same,DBIL,"72 h, time 3 day",0.018 mg/dL
same,GLC,"72 h, time 3 day",205.2 mg/dL
same,IP,"72 h, time 3 day",7.5 mg/dL
same,K,"72 h, time 3 day",4.5 meq/L
same,LDH,"72 h, time 3 day",128 IU/L
same,Na,"72 h, time 3 day",140.4 meq/L
same,PL,"72 h, time 3 day",149.8 mg/dL
same,RALB,"72 h, time 3 day",3.9 g/dL
same,TBIL,"72 h, time 3 day",0.4 mg/dL
same,TC,"72 h, time 3 day",74.4 mg/dL
same,TG,"72 h, time 3 day",99.6 mg/dL
same,TP,"72 h, time 3 day",5.7 g/dL
same,gamma-GTP,"72 h, time 3 day",0.8 IU/L
same,TERMINAL_BW,"[…], time 7 day",260.1 g
same,TERMINAL_BW,"[…], time 14 day",298.7 g
same,TERMINAL_BW,"[…], time 28 day",393.4 g
same,APTT,"[…], time 7 day",17.3 s
same,Bas,"[…], time 7 day",0%
same,Eos,"[…], time 7 day",1.2%
same,Fbg,"[…], time 7 day",214.6 mg/dL
same,Hb,"[…], time 7 day",14.1 g/dL
same,Ht,"[…], time 7 day",41.5%
same,Lym,"[…], time 7 day",78.4%
same,MCH,"[…], time 7 day",21.2 pg
same,MCHC,"[…], time 7 day",34%
same,MCV,"[…], time 7 day",62.4 fL
same,Mono,"[…], time 7 day",6.8%
same,Neu,"[…], time 7 day",14%
same,PT,"[…], time 7 day",11.7 s
same,Plat,"[…], time 7 day",131.9 x10_4/uL
same,RBC,"[…], time 7 day",665.6 x10_4/ul
same,Ret,"[…], time 7 day",6.1%
same,WBC,"[…], time 7 day",109.2 x10_2/uL
same,APTT,"[…], time 14 day",17.1 s
same,Bas,"[…], time 14 day",0%
same,Eos,"[…], time 14 day",0.6%
same,Fbg,"[…], time 14 day",228.2 mg/dL
same,Hb,"[…], time 14 day",14.9 g/dL
same,Ht,"[…], time 14 day",44%
same,Lym,"[…], time 14 day",85.2%
same,MCH,"[…], time 14 day",20.6 pg
same,MCHC,"[…], time 14 day",33.8%
same,MCV,"[…], time 14 day",61 fL
same,Mono,"[…], time 14 day",3.4%
same,Neu,"[…], time 14 day",10.4%
same,PT,"[…], time 14 day",11 s
same,Plat,"[…], time 14 day",121.3 x10_4/uL
same,RBC,"[…], time 14 day",720.6 x10_4/ul
same,Ret,"[…], time 14 day",2.8%
same,WBC,"[…], time 14 day",112.1 x10_2/uL
same,APTT,"[…], time 28 day",17.2 s
same,Bas,"[…], time 28 day",0%
same,Eos,"[…], time 28 day",1.2%
same,Fbg,"[…], time 28 day",217.6 mg/dL
same,Hb,"[…], time 28 day",15.4 g/dL
same,Ht,"[…], time 28 day",45.1%
same,Lym,"[…], time 28 day",77.4%
same,MCH,"[…], time 28 day",19.3 pg
same,MCHC,"[…], time 28 day",34.1%
same,MCV,"[…], time 28 day",56.7 fL
same,Mono,"[…], time 28 day",5.4%
same,Neu,"[…], time 28 day",15.4%
same,PT,"[…], time 28 day",12 s
same,Plat,"[…], time 28 day",119.3 x10_4/uL
same,RBC,"[…], time 28 day",796.6 x10_4/ul
same,Ret,"[…], time 28 day",2.3%
same,WBC,"[…], time 28 day",105.4 x10_2/uL
same,KIDNEY_L,"[…], time 7 day",1.1 g
same,KIDNEY_R,"[…], time 7 day",1.1 g
same,KIDNEY_TOTAL,"[…], time 7 day",2.2 g
same,KIDNEY_L,"[…], time 14 day",1.2 g
same,KIDNEY_R,"[…], time 14 day",1.2 g
same,KIDNEY_TOTAL,"[…], time 14 day",2.5 g
same,KIDNEY_L,"[…], time 28 day",1.5 g
same,KIDNEY_R,"[…], time 28 day",1.5 g
same,KIDNEY_TOTAL,"[…], time 28 day",2.9 g
same,LIVER,"[…], time 7 day",12.5 g
same,LIVER,"[…], time 14 day",13.5 g
same,LIVER,"[…], time 28 day",16.7 g
same,A/G,"[…], time 7 day",2.1
same,ALP,"[…], time 7 day",930 IU/L
same,ALT,"[…], time 7 day",32.8 IU/L
same,AST,"[…], time 7 day",68.4 IU/L
same,BUN,"[…], time 7 day",18.6 mg/dL
same,CRE,"[…], time 7 day",0.5 mg/dL
same,Ca,"[…], time 7 day",10.9 mg/dL
same,Cl,"[…], time 7 day",104.8 meq/L
same,DBIL,"[…], time 7 day",0 mg/dL
same,GLC,"[…], time 7 day",214.2 mg/dL
same,IP,"[…], time 7 day",7.2 mg/dL
same,K,"[…], time 7 day",4.5 meq/L
same,LDH,"[…], time 7 day",94.4 IU/L
same,Na,"[…], time 7 day",142 meq/L
same,PL,"[…], time 7 day",145.4 mg/dL
same,RALB,"[…], time 7 day",3.9 g/dL
same,TBIL,"[…], time 7 day",0.4 mg/dL
same,TC,"[…], time 7 day",72 mg/dL
same,TG,"[…], time 7 day",114.6 mg/dL
same,TP,"[…], time 7 day",5.7 g/dL
same,gamma-GTP,"[…], time 7 day",0.8 IU/L
same,A/G,"[…], time 14 day",1.7
same,ALP,"[…], time 14 day",683.4 IU/L
same,ALT,"[…], time 14 day",31.6 IU/L
same,AST,"[…], time 14 day",62.6 IU/L
same,BUN,"[…], time 14 day",18.4 mg/dL
same,CRE,"[…], time 14 day",0.5 mg/dL
same,Ca,"[…], time 14 day",10.5 mg/dL
same,Cl,"[…], time 14 day",105.8 meq/L
same,DBIL,"[…], time 14 day",0.03 mg/dL
same,GLC,"[…], time 14 day",185.4 mg/dL
same,IP,"[…], time 14 day",6.9 mg/dL
same,K,"[…], time 14 day",4.6 meq/L
same,LDH,"[…], time 14 day",131.8 IU/L
same,Na,"[…], time 14 day",140.8 meq/L
same,PL,"[…], time 14 day",154.2 mg/dL
same,RALB,"[…], time 14 day",3.8 g/dL
same,TBIL,"[…], time 14 day",0.3 mg/dL
same,TC,"[…], time 14 day",73.2 mg/dL
same,TG,"[…], time 14 day",125.8 mg/dL
same,TP,"[…], time 14 day",6 g/dL
same,gamma-GTP,"[…], time 14 day",1.4 IU/L
same,A/G,"[…], time 28 day",1.5
same,ALP,"[…], time 28 day",780.4 IU/L
same,ALT,"[…], time 28 day",30.4 IU/L
same,AST,"[…], time 28 day",62.4 IU/L
same,BUN,"[…], time 28 day",17.6 mg/dL
same,CRE,"[…], time 28 day",0.5 mg/dL
same,Ca,"[…], time 28 day",10 mg/dL
same,Cl,"[…], time 28 day",104.2 meq/L
same,DBIL,"[…], time 28 day",0.006 mg/dL
same,GLC,"[…], time 28 day",192.2 mg/dL
same,IP,"[…], time 28 day",6 mg/dL
same,K,"[…], time 28 day",4.4 meq/L
same,LDH,"[…], time 28 day",90 IU/L
same,Na,"[…], time 28 day",139.6 meq/L
same,PL,"[…], time 28 day",147.6 mg/dL
same,RALB,"[…], time 28 day",3.7 g/dL
same,TBIL,"[…], time 28 day",0.3 mg/dL
same,TC,"[…], time 28 day",68.2 mg/dL
same,TG,"[…], time 28 day",169 mg/dL
same,TP,"[…], time 28 day",6.3 g/dL
same,gamma-GTP,"[…], time 28 day",1.6 IU/L
